# From patent US11897898B2, “Pyridine macrocycle compounds as ASK1 inhibiting agents” (BIOGEN MA INC., priority 2018, dated 2024)
# Tests used:
# ASK1/MAP3K5 = biological target: T1, ASK1/MAP3K5 (Homo sapiens, UniProt Q99683); assay: ASK1 enzyme assay (ASK1/MAP3K5 assay by Reaction Biology Corp., 33P-ATP filter-binding); format: biochemical; details: 20 μM myelin basic protein and 10 μM ATP
# T1 construct: purchased Reaction Biology Corp. (Malvern, Pa.)
# T1 sequence (Q99683 1-1374): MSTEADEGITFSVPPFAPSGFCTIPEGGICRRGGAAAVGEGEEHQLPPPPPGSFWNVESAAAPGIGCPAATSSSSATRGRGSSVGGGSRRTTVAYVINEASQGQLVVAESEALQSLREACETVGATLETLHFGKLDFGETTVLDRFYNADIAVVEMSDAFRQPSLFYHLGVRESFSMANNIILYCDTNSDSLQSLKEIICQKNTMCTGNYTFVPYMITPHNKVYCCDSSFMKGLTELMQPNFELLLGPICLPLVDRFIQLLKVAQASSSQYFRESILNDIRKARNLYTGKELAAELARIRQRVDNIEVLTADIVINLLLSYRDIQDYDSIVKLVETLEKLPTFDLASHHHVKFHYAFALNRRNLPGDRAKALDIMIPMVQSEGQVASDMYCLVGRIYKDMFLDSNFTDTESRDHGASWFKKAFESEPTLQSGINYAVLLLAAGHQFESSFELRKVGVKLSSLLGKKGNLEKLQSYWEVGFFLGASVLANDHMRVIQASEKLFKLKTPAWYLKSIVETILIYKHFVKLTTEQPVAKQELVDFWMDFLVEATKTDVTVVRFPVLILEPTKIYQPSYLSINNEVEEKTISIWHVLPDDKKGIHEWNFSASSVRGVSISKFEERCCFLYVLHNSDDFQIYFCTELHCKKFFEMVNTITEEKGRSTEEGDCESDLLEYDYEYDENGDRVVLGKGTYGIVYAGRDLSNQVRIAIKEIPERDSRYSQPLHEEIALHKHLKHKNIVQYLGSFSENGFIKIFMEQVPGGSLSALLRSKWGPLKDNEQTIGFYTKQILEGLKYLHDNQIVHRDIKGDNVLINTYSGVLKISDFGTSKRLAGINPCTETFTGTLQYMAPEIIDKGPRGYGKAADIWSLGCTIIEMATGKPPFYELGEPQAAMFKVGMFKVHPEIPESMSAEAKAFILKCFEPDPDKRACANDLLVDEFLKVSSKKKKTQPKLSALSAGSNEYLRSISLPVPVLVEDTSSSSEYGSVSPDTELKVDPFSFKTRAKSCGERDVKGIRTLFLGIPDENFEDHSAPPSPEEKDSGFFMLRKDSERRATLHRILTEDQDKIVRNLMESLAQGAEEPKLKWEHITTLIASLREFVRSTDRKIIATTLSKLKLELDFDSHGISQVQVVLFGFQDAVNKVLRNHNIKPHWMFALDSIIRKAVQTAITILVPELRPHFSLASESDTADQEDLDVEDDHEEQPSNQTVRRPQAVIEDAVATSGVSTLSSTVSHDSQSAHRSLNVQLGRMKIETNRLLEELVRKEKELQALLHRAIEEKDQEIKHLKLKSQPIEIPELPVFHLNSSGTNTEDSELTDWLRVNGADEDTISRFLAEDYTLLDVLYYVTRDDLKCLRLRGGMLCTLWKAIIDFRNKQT
# Procedure: The protein kinase inhibitory activity of the compounds described herein were tested using the ASK1/MAP3K5 assay by Reaction Biology Corp. (Malvern, Pa.). The assay procedure follows (and is also available on the Reaction Biology Corp. website). • Base Reaction Buffer: 20 mM Hepes (pH 7.5), 10 mM MgCl2, 1 mM EGTA, • 0.02% Brij35, 0.02 mg/mL BSA, 0.1 mM Na3VO4, 2 mM DTT, 1% DMSO; • Substrate: 20 μM of myelin basic protein (MBP) and 10 μM ATP; • Protein kinase: ASK1/MAP3K5. • Reaction Procedure: • 1. Prepare indicated substrate in freshly prepared Base Reaction Buffer. • 2. Deliver any required cofactors to the substrate solution. • 3. Deliver indicated kinase into the substrate solution and gently mix. • 4. Deliver compounds in DMSO into the kinase reaction mixture by Acoustic; technology (Echo550; nanoliter range), incubate for 20 minutes at room temperature. • 5. Deliver ^33P-ATP (specific activity 10 μCi/μL) into the reaction mixture to initiate the reaction. • 6. Incubate kinase reaction for 2 hours at room temperature. • 7. Reactions are spotted onto P81 ion exchange paper. • 8. Detect kinase activity by filter-binding method.
# [1] = biological target: T2, ASK1 T838 auto phosphorylation (Homo sapiens, UniProt Q99683); assay: ASK1 (AUTO PHOS T838) assay in HEK-293T cells, MSD format; format: cell-based; details: HEK-293T cells transfected with ASK1-V5, 1 hr compound incubation
# T2 construct: ASK1-V5 tagged full length plasmid; expressed in transfected cells; host or cells: HEK-293T
# T2 sequence (Q99683 1-1374): T1 sequence (Q99683 1-1374)
# Procedure: ASK1 T838 auto phosphorylation was measured in HEK-293T cells using MSD assay format. HEK 293T cells were seeded in 15 cm plates at a density of 18 million cells and 20 mL DMEM with 10% FBS, Pen/Strep media. The plates were incubated at 37° C. overnight. Media on plates was changed to OPTI-MEM, serum free media and cells were transfected with 9 μg of ASK1-V5 tagged full length plasmid using Lipofectamine 2000 (Invitrogen) and the plates were incubated at 37° C. overnight. Cells were trypsinized, counted on Nexcellometer and plated into 96 well tissue culture plates with 100,000 cells/well and 200 μL media. Cells were incubated for 4 hr at 37° C. then ASK1 compounds were added using a HP 300e. Compounds were tested at 20 μM with 3 fold, 10 point dilution points then incubated for 1 hr at 37° C. A lysis buffer (Cell Signaling) was prepared with protease and phosphatase inhibitor and maintained at 4° C. until use. Media from cells was discarded and 120 μL of cold lysis buffer was added to the cells, the plate was shaken 4° C. for 1 hr. Lysate was mixed using Apricot liquid handler; aspirating up and down 16 times at high speed using 50 μL volume. 50 μL of cell lysates were transferred to a pre-coated MSD plates containing mouse anti-V5 antibody (1:500 dilution) and washed 3× with MSD wash buffer (TBST) and blocked with a 3% BSA solution. Plates were then incubated on a plate shaker overnight at 4° C. Plates were washed 3× with MSD wash buffer and 50 μL of rabbit anti-pASK1 T838 antibody was added to the wells and incubated for 2 hr at room temperature on a plate shaker. Plates were then washed and 50 μL of goat anti-rabbit sulfa-tag (1:500 dilution) was added to wells, and incubated for 1 hr at room temperature on a plate shaker. Plates were washed 3× and 150 μL of 2×MSD Read buffer was added to wells. Plates were immediately read on a MSD Instrument Reader where chemoluminecense signal was measured. Data was analyzed using Graph Pad or Genedata, the data was normalized and plotted, % activity versus log of compound concentration. The IC50 values were obtained from a 4 parameter fit.
SMILES,IC50 (ASK1/MAP3K5; class symbols),IC50 [1],IC50 ([1]; class symbols),IC50 (ASK1/MAP3K5)
"C[C@@H]1CCCOc2ncc(Br)cc2C(=O)Nc2cccc(n2)-c2nncn21 (single isomer, unassigned) [Compound 2]",1000 to 10000 nM,≥ 10000 nM,–,–
"C[C@@H]1CCCOc2ncccc2C(=O)Nc2cccc(n2)-c2nncn21 (single isomer, unassigned) [Compound 5]",1000 to 10000 nM,≥ 10000 nM,–,–
"C[C@@H]1CN(c2cnc3c(c2)C(=O)Nc2cccc(n2)-c2nncn2[C@@H](C)CCCO3)CCN1C (single isomer, unassigned) [Compound 12]",≤ 100 nM,–,≤ 100 nM,–
"C[C@H]1CN(c2cnc3c(c2)C(=O)Nc2cccc(n2)-c2nncn2[C@@H](C)CCCO3)CCN1C (single isomer, unassigned) [Compound 13]",≤ 100 nM,–,100 to 1000 nM,–
"Cc1cn(-c2cnc3c(c2)C(=O)Nc2cccc(n2)-c2nncn2[C@@H](C)CCCO3)cn1 (single isomer, unassigned) [Compound 30]",≤ 100 nM,–,≤ 100 nM,–
"Cc1cncn1-c1cnc2c(c1)C(=O)Nc1cccc(n1)-c1nncn1[C@@H](C)CCCO2 (single isomer, unassigned) [Compound 31]",≤ 100 nM,–,100 to 1000 nM,–
"C[C@H]1CCCOc2ncc(-n3cnc(C4CC4)c3)cc2C(=O)Nc2cccc(n2)-c2nncn21 (single isomer, unassigned) [Compound 32]",≤ 100 nM,–,≤ 100 nM,–
"C[C@H]1CCCOc2ncc(-n3cncc3C3CC3)cc2C(=O)Nc2cccc(n2)-c2nncn21 (single isomer, unassigned) [Compound 33]",≤ 100 nM,–,100 to 1000 nM,–
"C[C@@H]1CCCOc2ncc(C(F)(F)F)cc2C(=O)Nc2cccc(n2)-c2nncn21 (single isomer, unassigned) [Compound 42]",–,≥ 10000 nM,–,≥ 10000 nM
"CC1CCCOc2ncccc2C(=O)Nc2cccc(n2)-c2nncn21 (stereo not shown) [Compound 3, 10-Methyl-1^4H-6-oxa-3-aza-2(2,6),5(3,2)-dipyridina-1(3,4)-triazolacyclodecaphan-4-one]",≤ 100 nM,–,100 to 1000 nM,–
"C[C@@H]1CCCOc2ncc(N3CCOCC3)cc2C(=O)Nc2cccc(n2)-c2nncn21 [Compound 6, (R)-10-Methyl-5^5-morpholino-1^4H-6-oxa-3-aza-2(2,6),5(3,2)-dipyridina-1(3,4)-triazolacyclodecaphan-4-one]",–,–,1000 to 10000 nM,–
"C[C@H]1CCCOc2ncc(C3CCN(C)CC3)cc2C(=O)Nc2cccc(n2)-c2nncn21 [Compound 16, (S)-10-Methyl-5^5-(1-methylpiperidin-4-yl)-1^4H-6-oxa-3-aza-2(2,6),5(3,2)-dipyridina-1(3,4)-triazolacyclodecaphan-4-one]",–,–,≤ 100 nM,–
"C[C@@H]1CCCOc2ncc(-c3ccncc3)cc2C(=O)Nc2cccc(n2)-c2nncn21 [Compound 18, (R)-10-Methyl-5^5-(pyridin-4-yl)-1^4H-6-oxa-3-aza-2(2,6),5(3,2)-dipyridina-1(3,4)-triazolacyclodecaphan-4-one]",–,–,1000 to 10000 nM,–
"C[C@H]1CCCOc2ncc(-c3cncnc3)cc2C(=O)Nc2cccc(n2)-c2nncn21 [Compound 21, (S)-10-Methyl-5^5-(pyrimidin-5-yl)-1^4H-6-oxa-3-aza-2(2,6),5(3,2)-dipyridina-1(3,4)-triazolacyclodecaphan-4-one]",≤ 100 nM,–,–,–
"C[C@H]1CCCOc2ncc(-c3cnn(C)c3)cc2C(=O)Nc2cccc(n2)-c2nncn21 [Compound 26, (S)-10-Methyl-5^5-(1-methyl-1H-pyrazol-4-yl)-1^4H-6-oxa-3-aza-2(2,6),5(3,2)-dipyridina-1(3,4)-triazolacyclodecaphan-4-one]",–,–,≤ 100 nM,–
"Cc1cnn(-c2cnc3c(c2)C(=O)Nc2cccc(n2)-c2nncn2[C@@H](C)CCCO3)c1 [Compound 27, (S)-10-Methyl-5^5-(4-methyl-1H-pyrazol-1-yl)-1^4H-6-oxa-3-aza-2(2,6),5(3,2)-dipyridina-1(3,4)-triazolacyclodecaphan-4-one]",–,–,100 to 1000 nM,–
"C[C@H]1CCCOc2ncc(-n3ccc(C(F)(F)F)n3)cc2C(=O)Nc2cccc(n2)-c2nncn21 [Compound 29, (S)-10-Methyl-5^5-(3-(trifluoromethyl)-1H-pyrazol-1-yl)-1^4H-6-oxa-3-aza-2(2,6),5(3,2)-dipyridina-1(3,4)-triazolacyclodecaphan-4-one]",–,–,100 to 1000 nM,–
"C#Cc1cnc2c(c1)C(=O)Nc1cccc(n1)-c1nncn1[C@@H](C)CCCO2 [Compound 34, (S)-5^5-Ethynyl-10-methyl-1^4H-6-oxa-3-aza-2(2,6),5(3,2)-dipyridina-1(3,4)-triazolacyclodecaphan-4-one]",–,–,100 to 1000 nM,–
"C[C@H]1CCCOc2ncc(C#CC3CC3)cc2C(=O)Nc2cccc(n2)-c2nncn21 [Compound 35, (S)-5^5-(Cyclopropylethynyl)-10-methyl-1^4H-6-oxa-3-aza-2(2,6),5(3,2)-dipyridina-1(3,4)-triazolacyclodecaphan-4-one]",–,–,100 to 1000 nM,–
"C[C@H]1CCCOc2ncc(C3CC3)cc2C(=O)Nc2cccc(n2)-c2nncn21 [Compound 36, (S)-5^5-Cyclopropyl-10-methyl-1^4H-6-oxa-3-aza-2(2,6),5(3,2)-dipyridina-1(3,4)-triazolacyclodecaphan-4-one]",–,–,100 to 1000 nM,–
"C[C@H]1CCCOc2ncc(S(C)(=O)=O)cc2C(=O)Nc2cccc(n2)-c2nncn21 [Compound 43, (S)-10-Methyl-5^5-(methylsulfonyl)-1^4H-6-oxa-3-aza-2(2,6),5(3,2)-dipyridina-1(3,4)-triazolacyclodecaphan-4-one]",–,–,100 to 1000 nM,–
